Laboratory results as given in paper PMC3296825 (Nature medicine, 2012).

What was measured:
[1] = molecular target: fast skeletal troponin complex (Oryctolagus cuniculus, UniProt P02586+P02643); test: isothermal titration calorimetry; type: binding
slow skeletal troponin = slow skeletal troponin (Bos taurus, UniProt G3MYN5+P63315); test: isothermal titration calorimetry; type: binding

Chain of fast skeletal troponin complex (P02586 2-160): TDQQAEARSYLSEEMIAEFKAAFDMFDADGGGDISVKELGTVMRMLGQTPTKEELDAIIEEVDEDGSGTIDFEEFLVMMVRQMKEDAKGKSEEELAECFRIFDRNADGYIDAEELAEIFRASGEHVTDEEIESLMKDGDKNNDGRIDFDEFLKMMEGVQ
Chain of fast skeletal troponin complex (P02643 2-182): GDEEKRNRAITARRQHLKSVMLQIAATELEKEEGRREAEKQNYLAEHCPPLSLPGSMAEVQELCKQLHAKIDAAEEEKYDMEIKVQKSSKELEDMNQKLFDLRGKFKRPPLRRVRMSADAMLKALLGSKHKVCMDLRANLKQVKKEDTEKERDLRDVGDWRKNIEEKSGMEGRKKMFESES
Chain of fast skeletal troponin complex (P02641 2-279 partner): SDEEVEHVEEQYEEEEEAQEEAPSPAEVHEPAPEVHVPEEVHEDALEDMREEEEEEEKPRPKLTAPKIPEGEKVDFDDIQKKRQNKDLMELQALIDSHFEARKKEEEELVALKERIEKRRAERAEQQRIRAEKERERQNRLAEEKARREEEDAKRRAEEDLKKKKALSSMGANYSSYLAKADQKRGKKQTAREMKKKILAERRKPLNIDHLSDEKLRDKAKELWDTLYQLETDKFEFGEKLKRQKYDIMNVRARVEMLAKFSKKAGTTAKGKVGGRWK

Kd [1]: 40 ± 6 nM
Kd (slow skeletal troponin): 3800 ± 700 nM
SMILES: C#Cc1cnc2nc(O)n(C(CC)CC)c2n1 [CK-2017357]
